According to patent publication US20260265216A1, “NOVEL THIOREDOXIN REDUCTASE INHIBITORS” (GENEXPLAIN GMBH, priority 2021, published 2026):

What was measured:
[1] = system: MCF7 cells; test: Apoptosis detection by FACS (Annexin V); format: cell-based; details: 2 μM, 24 h
Protocol: Cells were placed on 12-well plate at a density of 30000/cm^2 and treated with compounds. After 24 h incubation cells were harvested by trypsinization, fixed with 70% ethanol, treated with RNase A (0.25 mg/ml) and stained with Annexin V according to manufacturer's instructions (Thermo Fisher Scientific). Samples were analyzed on a Becton Dickinson FACScan. Data were analyzed by the CellQuest software, version 3.2.1.
To find out whether the growth suppression by 1d*HCl is due to triggering cell death by apoptosis, we performed the Annexin V-mediated staining of phosphatidylserine, exposed on surface of cells undergoing apoptotic cell death. We detected Annexin V-positive cells using FACS.

[2] = system: recombinant purified GR; test: GR recombinant enzyme assay in vitro; format: biochemical
Protocol: TrxR1 enzyme was recombinantly produced with high Sec contents in a specific Release Factor 1-depleted E. coli strain and purified as previously described (Arnér E S J, Holmgren A, in Current Protocols in Toxicology, Maines M, Costa L, Reed D, Sassa S, Eds. (John Wiley & Sons, Inc., New York, 2000), pp. 7.4.1-7.4.14). TrxR1 and GSR (Sigma) recombinant enzyme assays were performed in a reaction buffer containing 50 mM Tris pH 7.5 with 2 mM EDTA and 0.1 mg/mL bovine serum albumin as described previously (Arnér E S J, Holmgren A, in Current Protocols in Toxicology, Maines M, Costa L, Reed D, Sassa S, Eds. (John Wiley & Sons, Inc., New York, 2000), pp. 7.4.1-7.4.14). Briefly, assays were performed in triplicate using 96-well plates, with activity inferred from absorbance changes using a Spectra Max plate reader. Results of recombinant enzyme assays were normalized to DMSO and to no enzyme controls.
We used recombinant purified TrxR1 and GR in an in vitro assay as described in methods section.

[3] = system: IMR32; test: Growth suppression, cancer cell line panel (resazurin); format: cell-based; details: IMR32, 0.4-25.6 μM, 48 hours
Protocol: Breast, colon, ovarian, cervical, liver and lung carcinoma cell lines were grown in DMEM supplemented with 10% FBS, and antibiotics were cultured at 37° C. and 5% CO2. Osteosarcoma, melanoma, lymphoma, neuroblastoma and leukemia cell lines were cultured in RPMI 1640 with 10% FBS and antibiotics. An oxygen concentration of 0.3% was obtained by flushing a sealed box containing the cells with premixed gas composed of 95% nitrogen (N2) and 5% CO2 (AGA AB, Sweden). To obtain an oxygen concentration of 0.05%, the cells were flushed with the premixed gas continuously throughout the experiment.
Cells were grown in 96-well plates at a density of 3000 cells per well with or without doxycycline and treated with compounds. After 48 hours of incubation the proliferative cell reagent resazurin (Thermo Fisher Scientific) was added to the cells. The degree of resazurin reduction, which reflects cell viability, was measured by microplate reader by monitoring the absorbance at 570 nm and 600 nm, according to the manufacturer.
The panel of cancer cell lines, including carcinomas of breast (MDA-MB231, SKBR3, T47D, MCF7; BT549, BT20, MDA-MB468), colon, (SW480, RKO, HT29, HCT116) ovarian (OVCAR3, OVCAR4, OVCAR8), cervical (SW756, C33A), liver (HEPG2) and lung (H23), osteosarcoma (SJSA and U2OS), melanoma (ME180), lymphoma (Raji, HDLM2), neuroblastoma (SKNAS, IMR32) and leukemia (NB4, K562) were treated with increasing concentrations of 1d*HCl: 0.4; 0.8; 1.6; 3.2; 6.4; 12.8; 25.6 μM in 96-well plates. After 48 hours of incubation the proliferative cell reagent resazurin was added to the cells. The degree of resazurin reduction, which reflects cell viability, was measured by microplate reader by monitoring the absorbance at 570 nm and 600 nm, according to the manufacturer, and the IC50 and AUC (area under curve) were determined (Table 2). As could be seen in Table 2, 1d*HCl suppressed the growth of cancer cell lines of a different origin, including carcinomas, osteosarcomas, melanoma, lymphoma, leukemia and neuroblastoma. These findings open up a possibility of the application of the present invention in anti-cancer therapy in a broad range of tumor types.

[4] = Growth suppression with selenium in culture medium; format: cell-based; details: selenium added to culture medium
Text: To find out whether the inhibition of TrxR1 is the major mechanism of action of 1d*HCl, we addressed the question, whether stimulation of TrxR1 activity will decrease the growth suppression activity of 1d*HCl. Since TrxR is a selenium-containing enzyme and the concentration of selenium is rate-limiting for TrxR1, we added selenium to culture medium to test whether selenium will alleviate the growth suppression by 1d*HCl.

inhibition of GR activity [2]: did not inhibit GR activity
Structure (SMILES): Cl.N#Cc1c(-c2cccnc2)[n+]([O-])c2cc(F)c(N3CCOCC3)cc2[n+]1[O-] [Compound 1d*HCl, 6-Fluoro-7-(morpholin-4-yl)-3-(pyridin-3-yl)quinoxaline-2-carbonitrile-1,4-dioxide hydrochloride]
Annexin V-positive cells (apoptosis) [1]: induced Annexin V-positive cells statistically significantly | AUC (area under curve) [3]: 6.40 | growth suppression in the presence of selenium [4]: less efficient in the presence of selenium
